Laboratory results reported in article PMC7115587 (European Journal of Medicinal Chemistry, 2014).

Key:
[1] = test system: HCT116 (colon cancer cell line) cells; assay: In vitro cytotoxicity
[2] = test system: CQ resistant W2 strain of P. falciparum; assay: In vitro antimalarial activity; type: cell-based, Plasmodium falciparum

O=C1C(=O)N(CC(CO)NCCCNc2ccnc3cc(Cl)ccc23)c2ccc(Cl)cc21 (stereo not drawn) [Compound 11f, 5-Chloro-1-{2-[3-(7-Chloro-quinolin-4-ylamino)-propylamino]-3-hydroxy-propyl}-1H-indole-2,3-dione]
cytotoxicity (in words) [1]: devoid of any cytotoxicity

O=C1C(=O)N(CC(CO)NCCNc2ccnc3cc(Cl)ccc23)c2ccc(Cl)cc21 (stereo not drawn) [Compound 11b, 5-Chloro-1-{2-[2-(7-Chloro-quinolin-4-ylamino)-ethylamino]-3-hydroxy-propyl}-1H-indole-2,3-dione]
cytotoxicity (in words) [1]: devoid of any cytotoxicity

O=C1C(=O)N(CC(CO)NCCNc2ccnc3cc(Cl)ccc23)c2ccccc21 (stereo not drawn) [Compound 11a, 1-{2-[2-(7-Chloro-quinolin-4-ylamino)-ethylamino]-3-hydroxy-propyl}-1H-indole-2,3-dione]
antimalarial activity (in words) [2]: better activity than chloroquine
